From patent publication US7354737B2, “Biomolecule transduction motif Sim-2-BTM and the use thereof” (ForHumanTech Co., Ltd., priority 2002, dated 2008)

Assays:
[1] = tested on: HUVEC, HeLa, 293 and Jurkat cells; experiment: Transduction of fusion protein across cell membrane, β-galactosidase staining and microscopy; format: cell-based; settings: 0.5 μM, 30 min, 37° C., HeLa, 293, Jurkat cells
Method: HUVEC (ATCC:CRL-1730) (2×10^5), HeLa (ATCC:CCL-2) (2×10^5), and 293 (ATCC:CRL-1573) (2×10^5), which were incubated in 10% FBS (Fetal Bovine Serum) of DMEM, were respectively transferred to Lab-tek II chamber slides. Jurkat cells (ATCC:CRL-10915) (2×10^5) incubated in 10% FBS RPMI were transferred to poly-L-lysin coated slide. Each of the slides was treated with the purified 0.5 μM of Sim-2-β-galactosidase for 30 min at 37° C. in 5% CO2 incubator. And the supernatants were removed from the slides. The incubation mixtures were washed using ice-cold PBS four times and then were solidified with 2% formaldehyde solution for 10 min. After removing the solidified solutions, the mixtures were washed again using ice-cold PBS four times. Subsequently, the respective mixtures were treated with 700 μl of β-galactosidase staining solution (Roche. Co.) for 45 min at 37° C. in 5% CO2 incubator. Following the staining, the mixtures were washed with ice-cold PBS four times after removing the supernatants. Next, the mixtures were mounted with 70% glycerol on the microscope slides.

[2] = tested on: Streptozotocin-Induced diabetic mice; experiment: Blood glucose level lowering in Streptozotocin-Induced diabetic mice; format: in vivo; settings: IP injection (1-10 mM)
Method: Blood glucose level lowering was examined using Sim-2-insulin and Sim-2-insulin-PR in the Example 13 with Streptozotocin-Induced diabetic mice. After 3 (three) days of abstinence, STZ (Sigma Chemical Co, St Louis, USA) (60 mg/kg) were […]. Insulin dependent diabetic mice were defined having 20 mmol/L or more blood glucose level together with other diabetic syndrome such as polyurea etc. All the in vivo studies were carried out after 2 weeks from the induction of diabetes. Recombinant insulin alone, Sim-2-insulin and Sim-2-insulin-PR in the Example 13 were, respectively, administered to the mice by IP injection (1-10 mM), and the blood glucose levels in the mice were monitored. In order to analyze the level of blood glucose, about 0.2 ml of blood was collected from each of the mice after anesthetizing them, and then the blood was subject to centrifuge at 13,000 rpm for 3 min. Next, about […] of serum was added to 1.5 ml of glucose kit agent (BiosystemSA, Barcelona, Spain) and the mixture was incubated at 37° C. for 10 min in water-bath. The level of blood glucose was detected with blood glucose analyzer (Quik-Lab, Ames, Miles Inc. Elkart, Ind., USA).

[3] = tested on: Jurkat T cells; experiment: Transduction of insulin fusion proteins, detected using mAb to insulin; format: cell-based; settings: detected with mAb to insulin
Text: A fusion protein of Sim-2 BTM and biologically active functional regulatory protein, which was expressed and purified from bacteria, was reformed so as to have natural folding structure and functions. Specifically, the fusion protein isolated and purified from bacteria was transferred again into CHO (Chinese hamster ovary) cells, and then the fusion protein, which had complete folding structure and functions found in natural state, was isolated and purified. As for purified 2 (two) types of fusion proteins, biological activity regulating capabilities were examined. For this examination, an expression vector pSim-2-insulin was designed in order to prepare fusion protein between Sim-2 BTM and human insulin. In order to make this expression vector, a 5′ primer of SEQ. ID No.:17 comprising nucleic acid sequence of Xba I restriction enzyme, nucleic acid sequence of Sim-2 BTM and N-terminal nucleic acid sequence of human insulin, and a 3′ primer of SEQ. ID No.:18 comprising nucleic acid sequence of Hind m and C-terminal nucleic acid sequence of human insulin were prepared. Then, PCR amplification was carried out using human pancreas beta cells prepared in our laboratory, as a template, and using the primers above mentioned. […] Following the treatment, the transduction level of insulin into the cells was detected using mAb to the insulin and was compared.

Substance	transduction across the cell membranes (β-galactosidase staining) [1]	blood glucose level, After administration ([2]; after administration)	blood glucose level, Before administration ([2]; before administration)	lowering of blood glucose level ([2]; from Table 3) [%]	transduction level of insulin into Jurkat T cells [3]
β-gal: β-galactosidase reporter protein not fused to Sim-2	not transduced at all				
Recombinant insulin: recombinant insulin not fused to Sim-2 BTM		2320	5600	50	almost none
